Laboratory results reported in US11332472B2, “Substituted piperidines as inhibitors of ubiquitin specific protease 7” (LES LABORATOIRES SERVIER, priority 2017, dated 2022).

What follows are compounds tested against T1, USP7 (Homo sapiens, UniProt Q93009, C315A) (assay: Inhibition of USP7 by Fluorescence Intensity (FLINT) readings, Ubiquitin-Rhodamine-110 substrate). Conditions: 0.25 nM His-His-USP7 (aa208-560, [C315A]); compound 60 minutes at 30° C.; 500 nM Ubiquitin-Rhodamine substrate; 11-point curves.
T1 construct: 0.25 nM His-His-USP7 (aa208-560, [C315A]) was incubated with compound; His-His (N)
T1 sequence (Q93009 208-560 C315A): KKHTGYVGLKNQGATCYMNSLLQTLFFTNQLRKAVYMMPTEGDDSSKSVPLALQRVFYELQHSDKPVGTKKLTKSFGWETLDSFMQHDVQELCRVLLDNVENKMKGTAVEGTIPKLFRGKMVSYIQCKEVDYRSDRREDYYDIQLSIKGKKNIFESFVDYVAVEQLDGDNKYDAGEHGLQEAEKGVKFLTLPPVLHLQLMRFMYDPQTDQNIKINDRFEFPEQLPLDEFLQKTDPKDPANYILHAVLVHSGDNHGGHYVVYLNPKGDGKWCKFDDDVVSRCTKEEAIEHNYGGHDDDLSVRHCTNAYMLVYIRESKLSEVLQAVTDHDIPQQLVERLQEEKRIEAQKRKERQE
Assay type: biochemical
Protocol: USP7 activity was measured using Rhodamine-110 c-terminal labelled Ubiquitin as a substrate (Viva Biosciences). Incubation with USP7 results in the release of Rhodamine-110 leading to an increase in fluorescence which can be used in the continuous measurement of USP7 activity.
The USP7 reactions were performed in a 50 μL volume, in 384 well black solid low binding plates (Corning #3575). The reaction buffer consisted of 100 mM Bicine pH 8.0, 0.01% TritonX 100, 1 mM TCEP, and 10% DMSO.
0.25 nM His-His-USP7 (aa208-560, [C315A]) was incubated with compound (final concentration 10% DMSO) for 60 minutes at 30° C. The reaction was then initiated by the addition of 500 nM Ubiquitin-Rhodamine-10 substrate and the plate read every 3 minutes for 21 minutes to measure the release of Rhodamine-110. Fluorescence Intensity (FLINT) readings were measured using a Biomek Neo plate reader (Ex. 485 nm. Em. 535 nm).
The inhibition of increasing doses of compound was expressed as a percentage reduction in kinetic rate compared to the kinetic rates established between ‘DMSO only’ and ‘total inhibition’ controls (no USP7). The inhibitory concentrations that gave a 50% reduction in kinetic rate (IC50) were determined, from 11-point dose response curves, in XL-Fit using a 4-Parameter Logistic Model (Sigmoidal Dose-Response Model).

Row | SMILES | IC50 [nM]
1 | O=C([C@@H]1OCCO[C@@H]1c1ccccc1)N1CCC(O)(Cn2cnc3c(ccn3-c3ccccc3)c2=O)CC1 (single isomer, unassigned) [Example 5, 3-[[4-hydroxy-1-[cis-3-phenyl-1,4-dioxane-2-carbonyl]-4-piperidyl]methyl]-7-phenyl-pyrrolo[2,3-d]pyrimidin-4-one] | 19400
2 | O=C([C@@H]1OCCO[C@@H]1c1ccccc1)N1CCC(O)(Cn2cnc3c(ccn3-c3ccccc3)c2=O)CC1 (single isomer, unassigned) [Example 6, 3-[[4-hydroxy-1-[cis-3-phenyl-1,4-dioxane-2-carbonyl]-4-piperidyl]methyl]-7-phenyl-pyrrolo[2,3-d]pyrimidin-4-one] | 28000
3 | COc1ccc(-n2ccc3c(=O)n(CC4(O)CCN(C(=O)[C@@H]5OCCO[C@@H]5c5ccccc5)CC4)cnc32)cc1 (single isomer, unassigned) [Example 7, 3-[[4-hydroxy-1-[cis-3-phenyl-1,4-dioxane-2-carbonyl]-4-piperidyl]methyl]-7-(4 methoxyphenyl)pyrrolo[2,3-d]pyrimidin-4-one] | 6500
4 | COc1ccc(-n2ccc3c(=O)n(CC4(O)CCN(C(=O)[C@@H]5OCCO[C@@H]5c5ccccc5)CC4)cnc32)cc1 (single isomer, unassigned) [Example 8, 3-[[4-hydroxy-1-[cis-3-phenyl-1,4-dioxane-2-carbonyl]-4-piperidyl]methyl]-7-(4-methoxyphenyl)pyrrolo[2,3-d]pyrimidin-4-one] | 13300
5 | O=C([C@@H]1CCCC[C@H]1n1cccc1)N1CCC(O)(Cn2cnc3c(ccn3-c3ccccc3)c2=O)CC1 (single isomer, unassigned) [Example 13, 3-[[4-hydroxy-1-[trans-2-pyrrol-1-ylcyclohexanecarbonyl]-4-piperidyl]methyl]-7-phenyl-pyrrolo[2,3-d]pyrimidin-4-one] | 11100
6 | COc1ccc(-n2ccc3c(=O)n(CC4(O)CCN(C(=O)[C@@H]5CCCC[C@H]5n5cccc5)CC4)cnc32)cc1 (single isomer, unassigned) [Example 16, 3-[[4-hydroxy-1-[trans-2-pyrrol-1-ylcyclohexanecarbonyl]-4-piperidyl]methyl]-7-(4-methoxyphenyl)pyrrolo[2,3-d]pyrimidin-4-one] | 2970
7 | O=C([C@@H]1CCCO[C@H]1c1ccccc1)N1CCC(O)(Cn2cnc3c(ccn3-c3ccccc3)c2=O)CC1 (single isomer, unassigned) [Example 26, 3-[[4-hydroxy-1-[trans-2-phenyltetrahydropyran-3-carbonyl]-4-piperidyl]methyl]-7-phenyl-pyrrolo[2,3-d]pyrimidin-4-one] | 67
8 | COc1ccc(-n2ccc3c(=O)n(CC4(O)CCN(C(=O)[C@@H]5CC(F)(F)CC[C@H]5c5ccccc5)CC4)cnc32)cc1 (single isomer, unassigned) [Example 29, 3-[[1-[trans-5,5-difluoro-2-phenyl-cyclohexanecarbonyl]-4-hydroxy-4-piperidyl]methyl]-7-(4-methoxyphenyl)pyrrolo[2,3-d]pyrimidin-4-one] | 612
9 | O=C([C@@H]1CC(F)(F)CC[C@H]1c1ccccc1)N1CCC(O)(Cn2cnc3c(ccn3-c3ccccc3)c2=O)CC1 (single isomer, unassigned) [Example 31, 3-[[1-[trans-5,5-difluoro-2-phenyl-cyclohexanecarbonyl]-4-hydroxy-4-piperidyl]methyl]-7-phenyl-pyrrolo[2,3-d]pyrimidin-4-one] | 2760
10 | COc1ccc(-n2ccc3c(=O)n(CC4(O)CCN(C(=O)[C@@H]5CCC(F)(F)C[C@H]5c5ccccc5)CC4)cnc32)cc1 (single isomer, unassigned) [Example 33, 3-[[1-(trans-4,4-difluoro-2-phenyl-cyclohexanecarbonyl)-4-hydroxy-4-piperidyl]methyl]-7-(4-methoxyphenyl)pyrrolo[2,3-d]pyrimidin-4-one] | 4670
11 | O=C([C@@H]1CCC(F)(F)C[C@H]1c1ccccc1)N1CCC(O)(Cn2cnc3c(ccn3-c3ccccc3)c2=O)CC1 (single isomer, unassigned) [Example 35, 3-[[1-[trans-4,4-difluoro-2-phenyl-cyclohexanecarbonyl]-4-hydroxy-4-piperidyl]methyl]-7-phenyl-pyrrolo[2,3-d]pyrimidin-4-one] | 13500
12 | CN1C(=O)CC[C@@H](C(=O)N2CCC(O)(Cn3cnc4c(ccn4C)c3=O)CC2)[C@@H]1c1ccccc1 (single isomer, unassigned) [Example 38, 3-[[4-hydroxy-1-[trans-1-methyl-6-oxo-2-phenyl-piperidine-3-carbonyl]-4-piperidyl]methyl]-7-methyl-pyrrolo[2,3-d]pyrimidin-4-one] | 399
13 | COc1ccc(-n2ccc3c(=O)n(CC4(O)CCN(C(=O)[C@@H]5CCCC[C@H]5c5ccc(F)cc5)CC4)cnc32)cc1 (single isomer, unassigned) [Example 40, 3-[[1-[trans-2-(4-fluorophenyl)cyclohexanecarbonyl]-4-hydroxy-4-piperidyl]methyl]-7-(4-methoxyphenyl)pyrrolo[2,3-d]pyrimidin-4-one] | 883
14 | O=C(C1CCCCC1c1ccc(F)cc1)N1CCC(O)(Cn2cnc3c(ccn3-c3ccccc3)c2=O)CC1 (single isomer, unassigned) [Example 42, 3-[[1-[(trans-2-(4-fluorophenyl)cyclohexanecarbonyl]-4-hydroxy-4-piperidyl]methyl]-7-phenyl-pyrrolo[2,3-d]pyrimidin-4-one] | 1590
15 | COc1ccc(-n2ccc3c(=O)n(CC4(O)CCN(C(=O)[C@@H]5CCCO[C@H]5c5ccccc5)CC4)cnc32)cc1 (single isomer, unassigned) [Example 44, 3-[[4-hydroxy-1-[trans-2-phenyltetrahydropyran-3-carbonyl]-4-piperidyl]methyl]-7-(4-methoxyphenyl)pyrrolo[2,3-d]pyrimidin-4-one] | 2750
16 | COc1ccc(-n2ccc3c(=O)n(CC4(O)CCN(C(=O)[C@@H]5CCCO[C@H]5c5ccccc5)CC4)cnc32)cc1 (single isomer, unassigned) [Example 45, 3-[[4-hydroxy-1-[trans-2-phenyltetrahydropyran-3-carbonyl]-4-piperidyl]methyl]-7-(4-methoxyphenyl)pyrrolo[2,3-d]pyrimidin-4-one] | 86
17 | COc1ccc(-n2ccc3c(=O)n(CC4(O)CCN(C(=O)[C@@H]5CCCC[C@H]5n5ccnc5)CC4)cnc32)cc1 (single isomer, unassigned) [Example 48, 3-[[4-hydroxy-1-[trans-2-imidazol-1-ylcyclohexanecarbonyl]-4-piperidyl]methyl]-7-(4-methoxyphenyl)pyrrolo[2,3-d]pyrimidin-4-one] | 413
18 | O=C([C@@H]1CCCC[C@H]1n1ccnc1)N1CCC(O)(Cn2cnc3c(ccn3-c3ccccc3)c2=O)CC1 (single isomer, unassigned) [Example 50, 3-[[4-hydroxy-1-[trans-2-imidazol-1-ylcyclohexanecarbonyl]-4-piperidyl]methyl]-7-phenyl-pyrrolo[2,3-d]pyrimidin-4-one] | 570
19 | O=C(C1CCCC(O)C1c1ccccc1)N1CCC(O)(Cn2cnc3c(ccn3-c3ccccc3)c2=O)CC1 (single isomer, unassigned) [Example 55, (1S,2S,3R or 1R,2R,3S)-3-[[4-hydroxy-1-[3-hydroxy-2-phenyl-cyclohexanecarbonyl]-4-piperidyl]methyl]-7-phenyl-pyrrolo[2,3-d]pyrimidin-4-one] | 113
20 | O=C(C1CCCC(O)C1c1ccccc1)N1CCC(O)(Cn2cnc3c(ccn3-c3ccccc3)c2=O)CC1 (single isomer, unassigned) [Example 56, (1S,2S,3S or 1R,2R,3R)-3-[[4-hydroxy-1-[3-hydroxy-2-phenyl-cyclohexanecarbonyl]-4-piperidyl]methyl]-7-phenyl-pyrrolo[2,3-d]pyrimidin-4-one] | 2550
21 | Cn1ccnc1[C@@H]1CCCC[C@H]1C(=O)N1CCC(O)(Cn2cnc3c(ccn3-c3ccccc3)c2=O)CC1 (single isomer, unassigned) [Example 57, 3-[[4-hydroxy-1-[trans-2-(1-methylimidazol-2-yl)cyclohexanecarbonyl]-4-piperidyl]methyl]-7-phenyl-pyrrolo[2,3-d]pyrimidin-4-one] | 28400
22 | Cn1ccnc1[C@@H]1CCCC[C@H]1C(=O)N1CCC(O)(Cn2cnc3c(ccn3-c3ccccc3)c2=O)CC1 (single isomer, unassigned) [Example 58, 3-[[4-hydroxy-1-[trans-2-(1-methylimidazol-2-yl)cyclohexanecarbonyl]-4-piperidyl]methyl]-7-phenyl-pyrrolo[2,3-d]pyrimidin-4-one] | 20300
23 | COc1ccc(-n2ccc3c(=O)n(CC4(O)CCN(C(=O)[C@@H]5C(C)=CCC[C@H]5c5cccs5)CC4)cnc32)cc1 (single isomer, unassigned) [Example 59, 3-[[4-hydroxy-1-[trans-2-methyl-6-(2-thienyl)cyclohex-2-ene-1-carbonyl]-4-piperidyl]methyl]-7-(4-methoxyphenyl)pyrrolo[2,3-d]pyrimidin-4-one] | 65.2
